# Measurements taken from PMC6429585, “Synthesis, Microtubule-Binding Affinity, and Antiproliferative Activity of New Epothilone Analogs and of an EGFR-Targeted Epothilone-Peptide Conjugate” (International Journal of Molecular Sciences, 2019).
# Read-outs that look alike come from different tables or passages of the source.
# Assays:
# EGFR (Homo sapiens) = EGFR (Homo sapiens) (UniProt P00533); assay: SPR; conditions: cited from earlier work
# A431 cells = assay: cells; type: cell-based, human; conditions: Homo sapiens, read-out: IC50 A431
# Procedure: (§1) Experiments were performed in RPMI (SW480 cells) or DMEM (HEK293 and A431 cells) medium (Gibco) supplemented with 2 mM glutamine, 10% fetal bovine serum, 100 IU/mL penicillin, 100 µg/mL streptomycin, and 1 µg/mL amphotericin B (all from Sigma) at 37 °C and 5% CO2. Cells were seeded into 96-well microtiter plates and compounds were added in DMSO in serial dilutions in triplicate. The final DMSO (dimethylsulfoxide) concentration was 0.1%. After 72 h, a WST-1 reagent was added and the absorption was measured at 450 nm with a plate reader after 30 min to 4 h. The percentage of viable cells was calculated based on vehicle-treated cells and was plotted in GraphPadPrism. At least three independent experiments were performed.
# (§2) A431 cells were obtained from CLS. The other cell lines were available in the laboratory. WST-1 was purchased from Roche.
# HEK293 cells = assay: cells; type: cell-based, human; conditions: Homo sapiens, read-out: IC50 HEK293
# Procedure: as §1, §2
# SW480 cells = assay: cells; type: cell-based, human; conditions: Homo sapiens, read-out: IC50 SW480
# Procedure: as §1, §2
# [1] = molecular target: glutaraldehyde-stabilized microtubules (paclitaxel binding site); assay: Microtubule binding affinity by displacement of Flutax-2 (fluorescence anisotropy); set-up: species or system calf
# Procedure: The binding affinity of epothilone analogs 1, 14, and 16 and of targeted conjugate 4 for microtubules was determined as previously described by Díaz and co-workers, using partly cross-linked microtubules and determining the changes in fluorescence anisotropy upon displacement of the fluorescent taxol derivative Flutax-2 [42, 43] (Figure S3).
# Purified calf-brain tubulin and chemicals were obtained as previously described. Stabilized, moderately crosslinked microtubules were prepared as reported in [42]. Binding constants of azathilones to stabilized microtubules were measured as previously described by Buey et al.. For details of the experimental procedures and Flutax-2 displacement curves cf. Section SI.3 of the Supplementary Materials.
# SI.3. Disulfide cleavage asssay
# Figure S2. […]
# 60 mg of frozen tubulin were thawed and loaded on a Sephadex G-25 column pre-equilibrated with cold 1 mM EGTA, 3.4 M glycerol, 10 mM sodium phosphate pH 6.8 buffer supplemented with 0.1 mM GTP. […] Fractions were collected and analyzed by spectrophotometry at 295 nm on a Thermo Evolution 300LC device. […] The tubulin concentration of the supernatant was determined by spectrophotometry at a 1:20 dilution of 10 mM sodium phosphate buffer containing 1%
# SDS. The concentration was calculated with an extinction coefficient of 107’000 M-1cm-1 at 276 nm. […]
# The concentration was measured spectrophotometrically as previously. […]
# EGFR = conditions: read-out: IC50 for displacement of [^125I]-EGF from the EGFR; cited from earlier work
# [2] = test system: cross-linked stabilized microtubules; set-up: method as in earlier work; conditions: cited from earlier work
# [3] = molecular target: stabilized, moderately crosslinked microtubules (calf-brain tubulin) (calf (endogenous in calf brain)) (UniProt Q6B856); assay: fluorescence polarisation; displacement of the fluorescent taxol derivative Flutax-2 from glutaraldehyde-stabilized, partly cross-linked microtubules, read by change in fluorescence anisotropy; 35 °C; association constant Kb
molecule,measurement,setting,value
GE11 peptide,Kd,EGFR (Homo sapiens),459 µM
"C/C(=C\c1csc(C)n1)[C@@H]1C[C@@H]2O[C@@H]2CCC[C@H](C)[C@H](O)[C@@H](C)C(=O)C(C)(C)[C@@H](O)CC(=O)O1 [Epo A, Epothilone A]",IC50,"A431 cells; A-431, 72 h",0.00294 ± 0.0003 µM
same,IC50,"HEK293 cells; HEK293, 72 h",0.00271 ± 0.00062 µM
same,IC50,"SW480 cells; SW480, 72 h",0.0145 ± 0.00109 µM
"CC(=O)SCCn1c(C)nc2cc([C@@H]3C[C@@H]4C[C@H]4CCC[C@H](C)[C@H](O)[C@@H](C)C(=O)C(C)(C)CCC(=O)O3)ccc21 [compound 14, S-(2-(5-((1S,3S,10R,11S,12S,16R)-11-Hydroxy-8,8,10,12-tetramethyl-5,9-dioxo-4-oxabicyclo[14.1.0]heptadecan-3-yl)-2-methyl-1H-benzo[d]imidazol-1-yl)ethyl) ethanethioate]",Kb lower compared to 1,[1]; ratio of microtubule-binding affinity versus analog 1,> 10 fold
"Cc1nc2cc([C@@H]3C[C@@H]4C[C@H]4CCC[C@H](C)[C@H](O)[C@@H](C)C(=O)C(C)(C)CCC(=O)O3)ccc2n1CCO [compound 1, (1S,3S,10R,11S,12S,16R)-11-Hydroxy-3-(1-(2-hydroxyethyl)-2-methyl-1H-benzo[d]imidazol-5-yl)-8,8,10,12-tetramethyl-4-oxabicyclo[14.1.0] heptadecane-5,9-dione]",IC50,"A431 cells; A-431, 72 h",0.00332 ± 0.0006 µM
same,IC50,"HEK293 cells; HEK293, 72 h",0.00087 ± 0.00013 µM
same,IC50,"SW480 cells; SW480, 72 h",0.0176 ± 0.0035 µM
"Cc1nc2cc([C@@H]3C[C@@H]4C[C@H]4CCC[C@H](C)[C@H](O)[C@@H](C)C(=O)C(C)(C)CCC(=O)O3)ccc2n1CCSSCCn1c(C)nc2cc([C@@H]3C[C@@H]4C[C@H]4CCC[C@H](C)[C@H](O)[C@@H](C)C(=O)C(C)(C)CCC(=O)O3)ccc21 [compound 16, Dimer of (1S,3S,10R,11S,12S,16R)-11-hydroxy-3-(1-(2-mercaptoethyl)-2-methyl-1H-benzo[d]imidazol-5-yl)-8,8,10,12-tetramethyl-4-oxabicyclo[14.1.0]heptadecane-5,9-dione]",IC50,"A431 cells; A-431, 72 h incubation, mean of three experiments ± SD",0.00837 ± 0.00081 µM
same,IC50,"HEK293 cells; HEK293, 72 h incubation, mean of three experiments ± SD",0.00208 ± 0.00053 µM
same,IC50,"SW480 cells; SW480, 72 h incubation, mean of three experiments ± SD",0.00891 ± 0.00126 µM
"EGF: epidermal growth factor, natural EGFR ligand",IC50,EGFR,0.0051 µM
CysCE11: GE11 peptide with a Cys residue added to the N-terminus; custom-made by Biosyntan (CYHWYGYTPQNVI) [reference compound],microtubule binding (in words),[1],no relevant microtubule binding
Flutax-2,Flutax-2 Ka,[2]; 26 °C,6.5 107 M-1
same,Flutax-2 Ka,[2]; 27 °C,5.9 107 M-1
same,Flutax-2 Ka,[2]; 30 °C,4.6 107 M-1
same,Flutax-2 Ka,[2]; 32 °C,4.2 107 M-1
same,Flutax-2 Ka,[2]; 35 °C,3.0 107 M-1
same,Flutax-2 Ka,[2]; 37 °C,2.2 107 M-1
same,Flutax-2 Ka,[2]; 40 °C,2.0 107 M-1
same,Flutax-2 Ka,[2]; 42 °C,1.8 107 M-1
"GE11: 12-amino acid residue peptide of the sequence YHWYGYTPQNVI, reported to bind to EGFR [reference compound]",IC50,EGFR,> 1000 µM
CYHWYGYTPQNVI [Cys-GE11 peptide],Ka,[3],50000 M⁻¹
CYHWYGYTPQNVI (side chain of the N-terminal Cys disulfide-linked to the thiol-containing epothilone analog 2; C-terminal amide (by the systematic name of 4)) [epothilone-GE11 conjugate 4],Ka,[3],9.3e+06 M⁻¹
